Source: PMC9249674, “A small-molecule Skp1 inhibitor elicits cell death by p53-dependent mechanism” (iScience, 2022)
Where two headings read alike, the source gives them in different places.

What was measured:
[1] = biological target: recombinant GST (Schistosoma japonicum, UniProt P08515); test: LC-MS/MS analysis of in vitro binding, negative control protein
[2] = biological target: T1, Skp1^WT (Homo sapiens, UniProt P63208); test: LC-MS/MS analysis of in vitro binding; conditions: overnight incubation
T1 construct: recombinantly purify intact (Skp1^WT) and truncate (ΔSkp1^1−140; lacking H8-helix) forms of Skp1; His6; made in house; host or cells: Escherichia coli BL21 (DE3)

[3] = biological target: T2, Skp1 interaction with NIPA (Homo sapiens, UniProt P63208); test: Cell-based FRET assay in HEK293 cells; conditions: 4 hrs, increasing concentrations
T2 construct: host or cells: HEK293

[4] = test system: Skp1-ΔF-box complex; test: LC-MS/MS analysis of in vitro binding; conditions: overnight incubation
[5] = test system: A549 cells; test: Cell viability assay (Cell-Titer GLO); assay type: cell-based, human; conditions: for EC50: Homo sapiens
Experimental: The media was according to culture conditions of each individual cell line (mentioned above). After 12 hrs, compounds were added in a total volume of 5 μL of media (two-fold diluted) to each well with final concentrations from 5 nM to 30 μM. The measurements were conducted 48 hrs after seeding of the cells. Then, 25 μL of Cell-Titer GLO reagent (Promega) was added, and luminescence was measured on an EnSpire multimode plate reader (PerkinElmer), according to the manufacturer’s instructions. The estimated in vitro half-maximal inhibitory concentration (EC50) values were calculated using GraphPad Prism® v6.0 (San Diego, CA) software. The cell viability for A549 cells was also performed for 72- and 96-hrs by using the same experimental conditions as described above.

[6] = biological target: T3, Skp1^F139A (Homo sapiens, UniProt P63208, F139A); test: SPRi assay, Skp1 mutant; assay type: binding
T3 construct: His6; made in house; host or cells: Escherichia coli BL21 (DE3)
Experimental: (§1) Freshly deposited gold coated standard SPRi chips/slides (Plexera, LLC) were cleaned, and compound(s) at 10 mM concentration in 100% DMSO were spotted on the chips using a micropipette. After this, the slides were left for complete evaporation of DMSO (under vacuum) at room temperature for 2 hrs. After printing, the slides were exposed to UV irradiation 2.4 J/cm^2 (365 nm) in a UV chamber (Amersham life science). The slides were subsequently washed with DMSO, ethanol, and finally with distilled water for 15 minutes (ultrasonically), respectively, to remove non-covalently bound compounds. After drying with nitrogen, the slides were assembled with flow cell and then mounted on SPRi instrument for measurement, or stored at 4°C to be used for later experiments.
(§2) All the experiments were carried out using the PlexArray® HT system (Plexera, LLC), which is based on surface plasmon resonance imaging. Oval regions of interests (ROIs) were set as 9 pixels × 7 pixels area in imaging area. ROIs of vehicle (DMSO) were used as controls for measurement of specific signals. All samples were injected with an association and dissociation flow rate of 3 μL s^−1 and at 25°C. A 1:3 mixture of glycine. HCL (pH 4.2) and 0.5% (v/v) SDS, respectively, was used to regenerate the surface and remove bound proteins from the small molecules enabling the sensor chip to be reused for additional analyte injections.
(§3) The Tris buffer (10 mM Tris-HCl pH 8.0, 100 mM NaCl), without any reducing agent, was used as both analyte and running buffer. Purified recombinant proteins, including Skp1^WT, ΔSkp1^1−140, and any of the desired mutant(s), were in the Tris buffer (10 mM Tris-HCl pH 8.0, 100 mM NaCl). For testing the compound(s), multiple concentrations (0.5 μM, 1 μM, 4 μM and 8 μM) of Skp1^WT or ΔSkp1^1−140 were flowed on the SPRi instrument as analyte to get accurate kinetic parameters. A typical sample injection cycle consists of 300 seconds association phase with the analyte solution and 400 seconds dissociation phase with running buffer at 3 μL s^−1 flow rate. Other purified proteins such as mutant forms of Skp1 were tested to confirm binding pocket specificity. The highest concentration tested for each protein was 8 μM. For data analysis, we choose two software packages, ORIGIN Lab and Data Analysis Module (DAM) of Plexera. All data from SPRi reported here are after subtraction of the background intensity/signal by DAM software. In short, the entire concentration of analyte was fitted with a 1:1 Langmuir interaction integrated rate equation to obtain the kinetic constants.

[7] = biological target: T4, Skp1 (Q97A) (Homo sapiens, UniProt P63208, Q97A); test: SPRi assay, Skp1 mutant; assay type: binding
T4 construct: His6; made in house; host or cells: Escherichia coli BL21 (DE3)
Experimental: as §1, §2, §3

[8] = biological target: T5, Skp1 (F101A) (Homo sapiens, UniProt P63208, F101A); test: SPRi assay, Skp1 mutant; assay type: binding
T5 construct: His6; made in house; host or cells: Escherichia coli BL21 (DE3)
Experimental: as §1, §2, §3

[9] = biological target: T6, Skp1 (F101W_V123T) (Homo sapiens, UniProt P63208, F101W/V123T); test: SPRi assay, Skp1 mutant; assay type: binding
T6 construct: His6; made in house; host or cells: Escherichia coli BL21 (DE3)
Experimental: as §1, §2, §3

[10] = biological target: T7, Skp1 (F101A_F139A) (Homo sapiens, UniProt P63208, F101A/F139A); test: SPRi assay, Skp1 mutant; assay type: binding
T7 construct: His6; made in house; host or cells: Escherichia coli BL21 (DE3)
Experimental: as §1, §2, §3

[11] = biological target: T8, Skp1 (F139D) (Homo sapiens, UniProt P63208, F139D); test: SPRi assay, Skp1 mutant; assay type: binding
T8 construct: His6; made in house; host or cells: Escherichia coli BL21 (DE3)
Experimental: as §1, §2, §3

[12] = biological target: T9, Skp1 (V123D) (Homo sapiens, UniProt P63208, V123D); test: SPRi assay, Skp1 mutant; assay type: binding
T9 construct: His6; made in house; host or cells: Escherichia coli BL21 (DE3)
Experimental: as §1, §2, §3

[13] = biological target: T10, ΔSkp1^1−140 (Homo sapiens, UniProt P63208); test: LC-MS/MS analysis of in vitro binding; conditions: ΔSkp1^1−140, overnight incubation
T10 construct: pETDuet-Skp1(1-140); His6; made in house; host or cells: Escherichia coli BL21 (DE3)

[14] = test system: H358 cells; test: Caspase-Glo 3/7 activity; assay type: cell-based; conditions: dose- and time-dependent treatment
Experimental: (§4) The activities of caspase-3/7, −8 and −9 were measured using Caspase-Glo® 3/7,8, and 9 assay kits (Promega, Madison, WI, USA) according to the manufacturer’s protocol. Briefly, the cells were plated over-night in a white 384 well microplate, and then treated as indicated with Z0933M. After treatment, 25 μL of each caspase substrate was added and incubated at room temperature for 30 min. Upon activation of caspase in the apoptotic cells, the substrate will give a luminescence signal after cleavage of the aminoluciferin-labelled synthetic tetrapeptide. Luminescent signals were detected using an EnSpire multimode plate reader (PerkinElmer). For inhibitor interventions and Skp1 overexpression, the experiments were performed in 96 well format.

[15] = test system: A549 cells; test: Caspase-Glo 3/7 activity; assay type: cell-based, human; conditions: dose- and time-dependent treatment
Experimental: as §4

[16] = test system: H358 (p53 null) cells; test: Flow cytometric analysis of apoptosis (annexin V/PI); assay type: cell-based; conditions: 10 μM dose
[17] = biological target: T11, Skp1 interaction with Skp2 (Homo sapiens, UniProt P63208); test: Cell-based FRET assay in HEK293 cells; conditions: 4 hrs, increasing concentrations
T11 construct: host or cells: HEK293
T11 sequence (P63208 whole entry): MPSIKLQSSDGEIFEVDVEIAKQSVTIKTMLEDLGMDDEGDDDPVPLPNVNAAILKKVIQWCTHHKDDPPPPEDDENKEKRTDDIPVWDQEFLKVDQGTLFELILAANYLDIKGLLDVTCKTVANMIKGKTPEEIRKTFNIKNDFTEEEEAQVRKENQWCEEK

T10 sequence (P63208 1-140, stated change not applied): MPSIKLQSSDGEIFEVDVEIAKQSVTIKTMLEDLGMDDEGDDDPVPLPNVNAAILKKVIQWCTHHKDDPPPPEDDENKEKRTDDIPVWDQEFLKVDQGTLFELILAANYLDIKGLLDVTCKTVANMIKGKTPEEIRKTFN
T4 sequence (P63208 whole entry Q97A): as the sequence (P63208 whole entry) above, with Q97A counted along it
T9 sequence (P63208 whole entry V123D): as the sequence (P63208 whole entry) above, with V123D counted along it
T1 sequence (P63208 whole entry, the tested form may be a part): as the sequence (P63208 whole entry) above
T2 sequence (P63208 whole entry): as above
T8 sequence (P63208 whole entry F139D): as the sequence (P63208 whole entry) above, with F139D counted along it
T7 sequence (P63208 whole entry F101A/F139A): as the sequence (P63208 whole entry) above, with F101A, F139A counted along it
T6 sequence (P63208 whole entry F101W/V123T): as the sequence (P63208 whole entry) above, with F101W, V123T counted along it
recombinant GST, sequence (P08515 2-218 limits assumed): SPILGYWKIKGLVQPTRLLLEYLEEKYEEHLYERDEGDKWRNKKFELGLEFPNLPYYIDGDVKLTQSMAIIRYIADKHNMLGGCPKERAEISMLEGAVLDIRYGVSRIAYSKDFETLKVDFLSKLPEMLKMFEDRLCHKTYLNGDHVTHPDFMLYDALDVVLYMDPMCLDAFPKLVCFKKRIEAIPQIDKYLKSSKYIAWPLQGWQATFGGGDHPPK
T5 sequence (P63208 whole entry F101A): as the sequence (P63208 whole entry) above, with F101A counted along it
T3 sequence (P63208 whole entry F139A): as the sequence (P63208 whole entry) above, with F139A counted along it

With Nc1ccc(-c2nc3ccccc3c3[nH]c4ccccc4c23)cc1 [Z0933M] the “presence in mass spectra (non-specific binding)” value [1] was “absent”, the “binding by LC-MS/MS” value [2] was “robust binding” and the “inhibition of Skp1-NIPA interaction (FRET ratio)” value [3] was “significant inhibition”. The “binding by LC-MS/MS” value [4] was “robust binding”, the “anti-proliferative potency relative to 6-OAP” value ([5]; A549 cells, 48 h, ratio of EC50 values) was “approximately 24 times” and the EC50 ([5]; A549, Lung cancer, 48 h, read-out: Anti-proliferative EC50) was 580 ± 70 nM. The EC50 ([5]; A549 cells, 72 hrs, read-out: EC50) was 99 ± 1 nM, the EC50 ([5]; A549 cells, 96 hrs, read-out: EC50) was 66 ± 18 nM and the Kd [6] was 455 ± 47.7 nM. It also gave a Kd [7] of 477 ± 4.95 nM, a Kd [8] of 374 ± 45.6 nM and a Kd [9] of 336 ± 36.8 nM. It also gave a Kd [10] of 799 ± 54.8 nM, a Kd [11] of 1140 ± 95.5 nM and a Kd [12] of 1270 ± 95.5 nM. The “binding by LC-MS/MS” value [13] was “robust binding”, the “caspase 3/7 activity” value [14] was “failed to do so” and the “caspase 3/7 activity” value [15] was “dose- and time-dependently induced caspase 3/7 activity”. The induction of apoptosis [16] was “could not induce apoptosis” and the “inhibition of Skp1-Skp2 interaction (FRET ratio)” value [17] was “significant inhibition”.
